Drawing on ChEMBL document CHEMBL3044824, “Synthesis and Acaricidal Activity of 1-Arylmethyl-2-arylimidazolidines” (2001), this text covers Activity for 28 compounds.

Structures are written as SMILES. Where only a bound is given, the exact number is not on record here.

Format in all cases: functional
The test system of assay [1] is Tetranychus urticae. In words: Acaricidal activity against Tetranychus urticae (two-spotted spider mite) in second leaf stage of Phaseolus vulgaris var. Serena assessed as mortality at 500 ppm after 7 days.
Assay [2] concerns Tetranychus urticae. In words: Acaricidal activity against Tetranychus urticae (two-spotted spider mite) in second leaf stage of Phaseolus vulgaris var. Serena assessed as mortality at 200 ppm after 7 days.
Assay [3] deals with Tetranychus urticae. As to the kind of experiment: Acaricidal activity against Tetranychus urticae (two-spotted spider mite) in second leaf stage of Phaseolus vulgaris var. Serena assessed as mortality at 100 ppm after 7 days.
Assay [4] deals with Tetranychus urticae. In words: Acaricidal activity against Tetranychus urticae (two-spotted spider mite) in second leaf stage of Phaseolus vulgaris var. Serena assessed as mortality at 50 ppm after 7 days.

Take `c1ccc(CN2CCN=C2c2cccnc2)cc1`: the Activity in assay [1] is 25%.

With `Clc1ccc(CN2CCN=C2c2cccnc2)cn1`, the results for the Activity in assay [2] and in assay [1] were 25% and 50%, respectively.

For the compound `c1ccc(C2=NCCN2c2ccccc2)cc1`, the Activity in assay [1] was less than 24%.

In the case of `c1ccc(CCN2CCN=C2c2ccccc2)cc1`, in assay [1], the Activity is recorded as 25%.

On to `c1ccc(CC2=NCCN2Cc2ccccc2)cc1`, for which the Activity in assay [1] is recorded as less than 24%.

For `Clc1ccc(CC2=NCCN2Cc2ccc(Cl)cc2)cc1`, the Activity in assay [1] is recorded as less than 24%.

`Clc1ccc(CN2CCCN=C2c2ccccc2)cc1`: the values for the Activity in assay [2] and in assay [1] were 25% and 50%, respectively.

For `CC1(C)CN=C(c2ccccc2)N(Cc2ccc(Cl)cc2)C1`, the Activity in assay [2] is on record as 50%; in assay [1], more than 80%; in assay [3] it was 25%.

As for `Clc1ccc(CN2CCN=C2c2ccccc2)c(Cl)c1`, the Activity in assay [1] is 25%.

As for `Clc1cccc(Cl)c1CN1CCN=C1c1ccccc1`, the Activity in assay [2] is on record as 25%; in assay [1], more than 80%.

`Clc1ccccc1C1=NCCN1Cc1ccccc1`: the results for the Activity in assay [2], in assay [1] and in assay [3] were 50%, more than 80% and 25%, respectively.

Turning to `Clc1cccc(C2=NCCN2Cc2ccccc2)c1`, in assay [1], the Activity is on record as less than 24%.

For `Clc1ccc(C2=NCCN2Cc2ccccc2)cc1`, the Activity in assay [1] is on record as less than 24%.

As for `Fc1cccc(F)c1C1=NCCN1Cc1ccccc1`, the Activity in assay [2], in assay [4], in assay [1] and in assay [3] was more than 80% each time.

`Fc1cccc(F)c1C1=NCCN1Cc1ccc(Cl)cc1`: the Activity in assay [2] is recorded as more than 80%; in assay [4], 25%; in assay [1], more than 80%; in assay [3] it was more than 80%.

Consider `c1ccc(C2=NCCN2Cc2cccnc2)cc1`, for which the Activity in assay [2] is reported as 50%; in assay [1], more than 80%; in assay [3] it was 25%.

In the case of `c1ccc(C2=NCCN2Cc2ccncc2)cc1`, the Activity in assay [2] was 50%; in assay [1] it was more than 80%; in assay [3] it was more than 80%.

For the compound `Clc1ccc(CN2CCN=C2c2ccccc2)cn1`, the results for the Activity in assay [2] and in assay [1] were less than 24% and 50%, respectively.

Consider `Clc1ccc(CN2CCN=C2c2cccnc2)cc1`, for which the Activity is more than 80% in assay [2], 25% in assay [4], more than 80% in assay [1] and 50% in assay [3].

As for `c1cncc(CN2CCN=C2c2cccnc2)c1`, the results for the Activity in assay [2], in assay [1] and in assay [3] were 50%, more than 80% and 25%, respectively.

In the case of `Clc1ccccc1CN1CCN=C1c1ccccc1`, the Activity was 50% in assay [2], more than 80% in assay [1] and 25% in assay [3].

For the compound `Clc1cccc(CN2CCN=C2c2ccccc2)c1`, the Activity is listed as 25% in assay [2] and more than 80% in assay [1].

`Clc1ccc(CN2CCN=C2c2ccccc2)cc1`: the Activity in assay [2], in assay [4], in assay [1] and in assay [3] was more than 80% in each case.

On to `Cc1ccc(CN2CCN=C2c2ccccc2)cc1`, for which the Activity in assay [1] is given as less than 24%.

As to `COc1ccc(CN2CCN=C2c2ccccc2)cc1`, the Activity in assay [1] is less than 24%.

`CC(C)(C)c1ccc(CN2CCN=C2c2ccccc2)cc1`: the Activity was 50% in assay [2], more than 80% in assay [1] and 25% in assay [3].

In the case of `c1ccc(C2=NCCN2Cc2ccc(-c3ccccc3)cc2)cc1`, the Activity in assay [2] is reported as more than 80%; in assay [4] it was 25%; in assay [1] it was more than 80%; in assay [3], 50%.

Turning to `c1ccc(CN2CCN=C2c2ccccc2)cc1`, the results for the Activity in assay [2] and in assay [1] were 25% and 50%, respectively.
